This is an account of results in the NIST ThermoML archive (doi:10.1016/j.jct.2015.12.020).

“And” between values parts separate entries of the source, which are not always exact repeats. Equal values may be shown once. Numbers after ± are expanded uncertainties.

A short description of series [1]: molar enthalpy of vaporization or sublimation. The conditions noted are these: 298.15 K; Crystal; Static calorimetry.
The conditions of series [2]: Crystal, Calculated from knudsen effusion weight loss.

Turning to `Cc1nnc(S)[nH]c1=O` [6-aza-2-thiothymine], the molar enthalpy in series [1] was found to be 28.7 ± 0.669 kcal/mol.
The same measure, in the same setting: then `Cc1n[nH]c(=O)[nH]c1=O` [6-azathymine], with 26.1 ± 0.55 kcal/mol.
Consider `O=c1cn[nH]c(=O)[nH]1` [6-azauracil], for which the vapor or sublimation pressure (commonly the equilibrium pressure above the liquid or solid) was 0.00012 ± 0.0001 kPa and 0.000109 ± 0.0001 kPa in series [2] (377.16 K); 0.000138 ± 0.0001 kPa and 0.000142 ± 0.0001 kPa and 0.000131 ± 0.0001 kPa in series [2] (379.12 K); 0.000167 ± 0.0001 kPa and 0.000164 ± 0.0001 kPa in series [2] (381.1 K); 0.000205 ± 0.0001 kPa and 0.000198 ± 0.0001 kPa and 0.000227 ± 0.0001 kPa in series [2] (383.16 K); 0.000252 ± 0.0001 kPa and 0.000229 ± 0.0001 kPa and 0.000269 ± 0.0001 kPa in series [2] (385.1 K); 0.000301 ± 0.0001 kPa and 0.000282 ± 0.0001 kPa in series [2] (387.09 K). For the same compound, the “vapor or sublimation pressure” value in series [2] (389.15 K) is 0.00037 ± 0.0001 kPa and 0.000355 ± 0.0001 kPa and 0.000413 ± 0.0001 kPa; in series [2] (391.1 K) it was 0.000452 ± 0.0001 kPa and 0.000422 ± 0.0001 kPa and 0.000477 ± 0.0001 kPa; in series [2] (393.1 K), 0.000538 ± 0.0001 kPa and 0.000515 ± 0.0001 kPa and 0.000575 ± 0.0001 kPa; in series [2] (395.15 K), 0.00061 ± 0.0001 kPa and 0.000596 ± 0.0001 kPa and 0.000684 ± 0.0001 kPa; in series [2] (397.13 K), 0.000756 ± 0.0001 kPa and 0.000711 ± 0.0001 kPa and 0.000812 ± 0.0001 kPa; in series [2] (399.12 K) it was 0.000901 ± 0.00011 kPa and 0.000859 ± 0.00011 kPa and 0.000945 ± 0.00011 kPa. Also, the molar enthalpy in series [1] came out at 28.2 ± 0.502 kcal/mol.
